According to patent US20200270309A1, “MALEIMIDE GROUP-MODIFIED ANGIOGENESIS INHIBITOR HM-1 AND USE THEREOF” (NANJING ANJI BIOLOGICAL TECHNOLOGY CO., LTD, priority 2017, published 2020):
Marks after values point to notes of the source that are not given here. Peptide text beside a SMILES is read from it. * marks the point of attachment. X72 = O=C1C=CC(=O)N1c1ccccc1CCCCCCCCCCC(=O)*; X79 = O=C1C=CC(=O)N1c1cccc(CCC(=O)*)c1

Legend:
[1] = test system: retinal neovascularization (OIR model); assay: Retinal vessels in OIR mice; type: in vivo, C57/B16 mice; conditions: for Area of neovascular plexus (mm^2): dose 0.05 μM in the vitreous chamber on day 13, retinal vessels evaluated on day 17; for Inhibition rate (%): dose 0.05 μM in the vitreous chamber on day 13, retinal vessels evaluated on day 17, vs negative control
Source text: Establishment of an OIR model: Young mice and their mothers were exposed in a 75% hyperoxic environment from day 7 to day 12 after the birth of C57/B16 mice, which caused capillaries in their central retina to disappear rapidly. The mice were returned to the indoor air on day 12, retinal vessels exposed to hyperoxia quickly disappeared, causing extensive abnormal neoangiogenesis, and the central part of the retina remained largely avascular for a long time. After the blood vessels disappeared completely, the mice were injected with normal saline (a negative group), X1-X12, X13-X44, X45-X90 in the vitreous chamber on day 13 respectively, and retinal vessels were evaluated on day 17 ([…] of Texas red labeled tomato agglutinin was injected into the left ventricle to mark unclosed vessels and circulated for 5 min).

HUVECs = assay: Transwell migration inhibition on HUVECs; type: cell-based, human; conditions: for Inhibition rate (%): HUVEC migration vs blank control; for Cell migration number (Mean ± SD): HUVECs, transwell, 24 h
[2] = test system: collagen-induced arthritis; assay: Mouse collagen-induced arthritis (CIA) animal model; type: in vivo; conditions: DBA/1 mice CIA model, dose 4.0 mg/kg, subcutaneous from day 30, n=10; for Clinical score: highest score 16
[3] = test system: retinal vascular endothelial nuclei; assay: Neovascularization in a rat model of premature retinopathy; type: in vivo, rats; conditions: dose 0.05 μM in the vitreous chamber from day 7 of modeling for one week; counted on day 14; oxygen-induced neonatal rats
Description: Using a fluctuating oxygen-induced animal model, newborn rats born naturally on the same day (within 12 h) were randomly divide into three groups: an oxygen model group, an oxygen treatment group and a normal control group. The oxygen model was further divided into three sub-group model groups, and the sub-group model groups and the treatment group were all placed in a semi-closed oxygen chamber made of organic glass; medical oxygen was introduced into the chamber, and the concentration was adjusted to 80%±2% by an oxygen meter; nitrogen was introduced into the oxygen chamber after 24 h, and the oxygen concentration was adjusted to 10%±2% rapidly and maintained for 24 h. This was repeated to keep the oxygen concentration in the oxygen chamber alternating between 80% and 10% every 24 h, the oxygen concentration was maintained for 7 d, and then the rats were fed in the air. The oxygen concentration was monitored 8 times a day, and the ambient temperature in the chamber was controlled at 23° C.±2° C. Bedding was replaced, feed was added, and water and mother rats were replaced once. The normal control group was placed in the animal room feeding environment. […] The oxygen treatment group was divided into three subgroups. On day 7 of modeling, X1-[…], […]-[…] and […]-X90 were injected in the vitreous chamber respectively, and the oxygen model group and the control group were only given normal saline for one week. On day 14, after the rats were anesthetized by diethyl ether and killed, eyeballs were extracted and fixed in 40 g/L paraformaldehyde solution for 24 h. Gradient dehydration by alcohol was performed, and the eyeballs were processed by xylene to be transparent. After waxing, the eyeballs were sectioned continuously to a thickness of 4μm, and the periphery of the optic disc should be avoided as much as possible. The sections were parallel to the sagittal plane from cornea to the optic disc. Ten sections of each eyeball were randomly taken and stained with hematoxylin eosin, the number of vascular endothelial nuclei that broke through the inner limiting membrane of the retina (only the number of vascular endothelial nuclei closely related to the inner limiting membrane were counted) was counted, and statistics of the average number of cells per section per eyeball was performed. Results: In the control group, there were no vascular endothelial nuclei that broke through the inner limiting membrane of the retina and grew into vitreous body, or the vascular endothelial nuclei were occasionally found in only a few sections. In the model group, there were many vascular endothelial nuclei that broke through the inner limiting membrane of the retina, some appeared alone, and some appeared in clusters. At the same time, on some sections, these vascular endothelial nuclei were also found adjacent to deep retinal vessels, confirming that they originated from the retina rather than the vitreous body or other ocular tissues. In the treatment group, only a few vascular endothelial nuclei that broke through the inner limiting membrane of retina could be seen in the sections.

[4] = test system: corneal neovascularization; assay: Corneal neovascularization induced by alkali burn in BALB/c mice; type: in vivo; parameters: Inhibition rate (corneal neovascularization): concentration or dose not given beside the values; conditions: day 14 after alkali burn, vitreous injection once a day for 1 week
[5] = test system: xylene-induced ear swelling; assay: Xylene-induced mouse ear swelling; type: in vivo; conditions: Kunming mice, injected once a day for 5 days; for Swelling degree / Swelling degree (mg): right minus left ear piece weight 2 h after xylene; for Inhibition rate (%): xylene-induced ear swelling
In short: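 Kunming mice dosed by injection once daily for 5 days; 1 h after last dose, 0.05 mL xylene applied to right ear, left ear untreated. Mice killed 2 h later; punched ear pieces weighed. Swelling degree = right minus left ear weight; swelling rate = swelling degree/left ear weight ×100%.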

[6] = test system: IL-1β production by mouse peritoneal macrophages; assay: IL-1β production by mouse peritoneal macrophages (ELISA); type: cell-based; conditions: for Inhibition rate: IL-1β production, vs model group; for IL-1β: mouse peritoneal macrophages, 48 h, ELISA
In short: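 Starch-elicited (6%, i.p.) mouse peritoneal macrophages, 2×10^6 cells/mL in RPMI 1640, adhered 3 h; non-adherent cells washed off. Polypeptides added at low, medium and high concentrations, Dex as positive control; cultured 48 h, supernatant IL-1β measured.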

## C[C@H](NC(=O)CNC(=O)[C@H](CCCNC(=N)N)NC(=O)CCc1cccc(N2C(=O)C=CC2=O)c1)C(=O)N[C@@H](CC(=O)O)C(=O)N[C@@H](CCCNC(=N)N)C(=O)N[C@@H](C)C(=O)NCC(=O)NCC(=O)NCC(=O)NCC(=O)N[C@@H](CCCNC(=N)N)C(=O)NCC(=O)N[C@@H](CC(=O)O)C(=O)O [X26] (X79-RGADRAGGGGRGD-OH)
[1]
  Area of neovascular plexus (mm^2): 0.104 ± 0.001 mm^2
  Inhibition rate (%): 50.94%**
HUVECs; dose 0.05 μM
  Inhibition rate (%): 46.81%
  Cell migration number (Mean ± SD): 570.08 ± 49.26
HUVECs; dose 0.1 μM
  Inhibition rate (%): 48.98%
  Cell migration number (Mean ± SD): 546.86 ± 60.43
HUVECs; dose 0.2 μM
  Inhibition rate (%): 53.86%
  Cell migration number (Mean ± SD): 494.57 ± 48.88
[2]
  Joint swelling degree (mm): 0.71 ± 0.14 mm
  Left and right paw swelling degree (mm): 0.84 ± 0.12 mm
  Clinical score: 9.07 ± 1.32
[3]
  Nuclei count (retinal vascular endothelial nuclei, average per section per eyeball): 8.343 ± 2.131
[4]
  Inhibition rate (corneal neovascularization): 44.32%
  MVD (corneal microvessel density): 37.44 ± 4.646
[5]; dose 2 mg/kg
  Swelling degree: 5.88 ± 0.72 mg
  Inhibition rate (%): 5.62%
[5]; dose 4 mg/kg
  Swelling degree: 5.78 ± 0.62 mg
  Inhibition rate (%): 7.22%
[5]; dose 8 mg/kg
  Swelling degree (mg): 4.54 ± 0.61** mg
  Inhibition rate (%): 49.76%
[6]; dose 0.05 μM
  Inhibition rate: 18.26%
  IL-1β: 769.33 ± 19.82 pg/mL
[6]; dose 0.1 μM
  Inhibition rate: 21.99%
  IL-1β: 734.20 ± 13.89 pg/mL
[6]; dose 0.2 μM
  Inhibition rate: 29.51%
  IL-1β: 663.38 ± 11.96 pg/mL

## C[C@H](NC(=O)CNC(=O)[C@H](CCCNC(=N)N)NC(=O)CCCCCCCCCCc1ccccc1N1C(=O)C=CC1=O)C(=O)N[C@@H](CC(=O)O)C(=O)N[C@@H](CCCNC(=N)N)C(=O)N[C@@H](C)C(=O)NCC(=O)NCC(=O)NCC(=O)NCC(=O)N[C@@H](CCCNC(=N)N)C(=O)NCC(=O)N[C@@H](CC(=O)O)C(=O)O [X22] (X72-RGADRAGGGGRGD-OH)
[1]
  Area of neovascular plexus (mm^2): 0.082 ± 0.005 mm^2
  Inhibition rate (%): 61.32%**
HUVECs; dose 0.05 μM
  Inhibition rate (%): 48.22%
  Cell migration number (Mean ± SD): 555.03 ± 66.81
HUVECs; dose 0.1 μM
  Inhibition rate (%): 55.21%
  Cell migration number (Mean ± SD): 480.13 ± 67.49
HUVECs; dose 0.2 μM
  Inhibition rate (%): 57.65%
  Cell migration number (Mean ± SD): 453.97 ± 57.23
[2]
  Joint swelling degree (mm): 0.75 ± 0.14 mm
  Left and right paw swelling degree (mm): 0.83 ± 0.13 mm
  Clinical score: 8.67 ± 1.32
[3]
  Nuclei count (retinal vascular endothelial nuclei, average per section per eyeball): 7.368 ± 1.842
[4]
  Inhibition rate (corneal neovascularization): 46.70%
  MVD (corneal microvessel density): 35.84 ± 6.594
[5]; dose 2 mg/kg
  Swelling degree (mg): 4.72 ± 0.29* mg
  Inhibition rate (%): 24.24%
[5]; dose 4 mg/kg
  Swelling degree (mg): 3.67 ± 0.77** mg
  Inhibition rate (%): 41.09%
[5]; dose 8 mg/kg
  Swelling degree (mg): 3.42 ± 0.21** mg
  Inhibition rate (%): 45.10%
[6]; dose 0.05 μM
  Inhibition rate: 29.53%
  IL-1β: 663.21 ± 13.73 pg/mL
[6]; dose 0.1 μM
  Inhibition rate: 32.31%
  IL-1β: 637.07 ± 19.81 pg/mL
[6]; dose 0.2 μM
  Inhibition rate: 38.53%
  IL-1β: 578.51 ± 14.03 pg/mL
